Test results taken from patent US5371102A, “Compositions and methods of inhibiting thyroid activity” (priority 1993, dated 1994).

Assay: kinetics of thione oxygenation by hydrogen peroxide/TFA
Format: physicochemical
Settings: thione 25 μM, H2O2 34 mM, TFA 163 mM in methanol, 25° C.; relative to DMMBI
Experimental: The kinetics of thione oxygenation were determined for MBI, MMBI and DMMBI. Oxygenation by hydrogen peroxide/TFA was measured spectrophotometrically (305 nm) at 25° C. by addition of thione (final concentration 25 μM) to hydrogen peroxide (34 mM) and TFA (163 mM) in methanol.

SMILES: Cn1c(=S)n(C)c2ccccc21 [DMMBI, 1,3-dimethylbenzimidazole-2-thione]
- relative rate of oxygenation: 1
